Test results as given in patent US20140349948A1, “Treatment of Chronic Constipation” (Forest Laboratories Holdings Limited, priority 2009, published 2014).
Residues, ends and D or L forms follow the SMILES beside them.

System: patients with chronic constipation
Assay: Trial 2 four-week Randomized Withdrawal Period
Assay type: in vivo, human
Design: Straining, Change From Baseline, Mean / Abdominal Discomfort, Change From Baseline, Mean / Bloating, Change From Baseline, Mean / Constipation Severity, Change From Baseline, Mean / Global Relief of Constipation Symptoms, Change From Baseline, Mean: scale not given here
Conditions: for Abdominal Discomfort, Change From Baseline, Mean / Bloating, Change From Baseline, Mean / Constipation Severity, Change From Baseline, Mean / Global Relief of Constipation Symptoms, Change From Baseline, Mean / Stool Consistency (BSFS), Change From Baseline, Mean / Straining, Change From Baseline, Mean / Weekly CSBM Rate, Change From Baseline, Mean / Weekly SBM Rate, Change From Baseline, Mean: RW Period
Protocol: Trial 2 was conducted in 642 patients and was identical to Trial 1 except that Trial 2 also included a four-week Randomized Withdrawal Period, defined below. During the two-week pretreatment (baseline) period, 68 percent of patients in Trial 2 had no CSBMs.
The Randomized Withdrawal (RW) Period is defined as the 4 weeks immediately following the Treatment Period. The beginning of the RW Period coincides with the end of the Treatment Period. Patients who were randomized to linaclotide in the Treatment Period and complete the 12 weeks of the Treatment Period were randomized to treatment with linaclotide or placebo in the RW Period. Patients who were randomized to placebo in the Treatment Period and complete the 12 weeks of the Treatment Period received 133 μg or 266 μg linaclotide in the RW Period.

In the case of `C[C@@H]1NC(=O)[C@@H]2CCCN2C(=O)[C@H](CC(N)=O)NC(=O)[C@@H]2CSSC[C@H](N)C(=O)N[C@H]3CSSC[C@H](NC1=O)C(=O)N[C@@H]([C@@H](C)O)C(=O)NCC(=O)N[C@H](C(=O)N[C@@H](Cc1ccc(O)cc1)C(=O)O)CSSC[C@H](NC(=O)[C@H](Cc1ccc(O)cc1)NC(=O)[C@H](CCC(=O)O)NC3=O)C(=O)N2` [Linaclotide, Cys1 Cys2 Glu3 Tyr4 Cys5 Cys6 Asn7 Pro8 Ala9 Cys10 Thr11 Gly12 Cys13 Tyr14] (HELM PEPTIDE1{C.C.E.Y.C.C.N.P.A.C.T.G.C.Y}$PEPTIDE1,PEPTIDE1,1:R3-6:R3|PEPTIDE1,PEPTIDE1,2:R3-10:R3|PEPTIDE1,PEPTIDE1,5:R3-13:R3$$$V2.0), the “Abdominal Discomfort, Change From Baseline, Mean” value (133 μg/133 μg (n = 90)) was −0.5, the “Bloating, Change From Baseline, Mean” value (133 μg/133 μg (n = 90)) was −0.4 and the “Constipation Severity, Change From Baseline, Mean” value (133 μg/133 μg (n = 90)) was −0.9. For the same compound, the “Global Relief of Constipation Symptoms, Change From Baseline, Mean” value (“Global Relief … Change From Baseline, Mean” below) (133 μg/133 μg (n = 90)) was −1.3, the “Stool Consistency (BSFS), Change From Baseline, Mean” value (133 μg/133 μg (n = 90)) was 1.9 and the “Straining, Change From Baseline, Mean” value (133 μg/133 μg (n = 90)) was −1.1. The “Weekly CSBM Rate, Change From Baseline, Mean” value (133 μg/133 μg (n = 90)) was 2.1, the “Weekly SBM Rate, Change From Baseline, Mean” value (133 μg/133 μg (n = 90)) was 3.0 and the “Abdominal Discomfort, Change From Baseline, Mean” value (133 μg/Placebo (n = 95)) was −0.4. For the same compound, the “Bloating, Change From Baseline, Mean” value (133 μg/Placebo (n = 95)) was −0.4, the “Constipation Severity, Change From Baseline, Mean” value (133 μg/Placebo (n = 95)) was −0.5 and the “Global Relief … Change From Baseline, Mean” value (133 μg/Placebo (n = 95)) was −0.7. For the same compound, the “Stool Consistency (BSFS), Change From Baseline, Mean” value (133 μg/Placebo (n = 95)) was 1.0, the “Straining, Change From Baseline, Mean” value (133 μg/Placebo (n = 95)) was −0.8 and the “Weekly CSBM Rate, Change From Baseline, Mean” value (133 μg/Placebo (n = 95)) was 1.0. The “Weekly SBM Rate, Change From Baseline, Mean” value (133 μg/Placebo (n = 95)) was 1.2, the “Abdominal Discomfort, Change From Baseline, Mean” value (266 μg/266 μg (n = 90)) was −0.7 and the “Bloating, Change From Baseline, Mean” value (266 μg/266 μg (n = 90)) was −0.6. For the same compound, the “Constipation Severity, Change From Baseline, Mean” value (266 μg/266 μg (n = 90)) was −0.9, the “Global Relief … Change From Baseline, Mean” value (266 μg/266 μg (n = 90)) was −1.3 and the “Stool Consistency (BSFS), Change From Baseline, Mean” value (266 μg/266 μg (n = 90)) was 1.6. The “Straining, Change From Baseline, Mean” value (266 μg/266 μg (n = 90)) was −1.3, the “Weekly CSBM Rate, Change From Baseline, Mean” value (266 μg/266 μg (n = 90)) was 2.2 and the “Weekly SBM Rate, Change From Baseline, Mean” value (266 μg/266 μg (n = 90)) was 2.5. For the same compound, the “Abdominal Discomfort, Change From Baseline, Mean” value (266 μg/Placebo (n = 86)) was −0.4, the “Bloating, Change From Baseline, Mean” value (266 μg/Placebo (n = 86)) was −0.2 and the “Constipation Severity, Change From Baseline, Mean” value (266 μg/Placebo (n = 86)) was −0.5. The “Global Relief … Change From Baseline, Mean” value (266 μg/Placebo (n = 86)) was −0.8, the “Stool Consistency (BSFS), Change From Baseline, Mean” value (266 μg/Placebo (n = 86)) was 0.8 and the “Straining, Change From Baseline, Mean” value (266 μg/Placebo (n = 86)) was −0.8. For the same compound, the “Weekly CSBM Rate, Change From Baseline, Mean” value (266 μg/Placebo (n = 86)) was 0.9, the “Weekly SBM Rate, Change From Baseline, Mean” value (266 μg/Placebo (n = 86)) was 1.3 and the “Abdominal Discomfort, Change From Baseline, Mean” value (Placebo/266 μg (n = 177)) was −0.5. The “Bloating, Change From Baseline, Mean” value (Placebo/266 μg (n = 177)) was −0.5, the “Constipation Severity, Change From Baseline, Mean” value (Placebo/266 μg (n = 177)) was −1.0 and the “Global Relief … Change From Baseline, Mean” value (Placebo/266 μg (n = 177)) was −1.3. The “Stool Consistency (BSFS), Change From Baseline, Mean” value (Placebo/266 μg (n = 177)) was 1.9, the “Straining, Change From Baseline, Mean” value (Placebo/266 μg (n = 177)) was −1.2 and the “Weekly CSBM Rate, Change From Baseline, Mean” value (Placebo/266 μg (n = 177)) was 2.1. The “Weekly SBM Rate, Change From Baseline, Mean” value (Placebo/266 μg (n = 177)) was 3.7, the “bowel and abdominal symptoms and global assessments in patients continuing treatment” value (Randomized Withdrawal Period) was “sustained improvements” and the “frequencies of adverse events following discontinuing of treatment” value (Randomized Withdrawal Period) was “no evidence of rebound of CC symptoms or increase in the frequencies of adverse events”. For the same compound, the “rebound of CC symptoms following discontinuing of treatment” value (Randomized Withdrawal Period) was “no evidence of rebound of CC symptoms”, the “CC symptoms in patients initiating linaclotide treatment” value (Randomized Withdrawal Period, placebo then linaclotide) was “marked improvement” and the “incidence of adverse events in patients initiating linaclotide treatment” value (Randomized Withdrawal Period, versus those receiving linaclotide during first 4 weeks of Treatment Period) was “similar”. For the same compound, the “CSBM and SBM rates versus baseline rates after withdrawal” value (linaclotide for 12 weeks, re-randomized to placebo during 4 week withdrawal period) was “no decreases in CSBM (FIG. 2) or SBM rates (FIG. 3) below the baseline rates”.
